# Key:
# Type in all cases: cell-based, mice
# [1] = system: naïve OVA323-339-specific OT-II CD4^+ T cells; experiment: BMDC / naive OT-II CD4+ T cell co-culture, Th1 differentiation; settings: with IFN-γ
# From the text: (§1) FIG. 4A-4K: Effect of inosine on T cell differentiation and dependency on classical dendritic cells of ICB therapy efficacy. (a) Scatter plot of untargeted metabolomics data in the serum of anti-CTLA-4 treated, tumor-bearing B.p. monocolonized compared to C.sp. monocolonized and germ-free (GF) mice. Grey circles or dotted grey circles depict inosine or inosine fragments/adducts, respectively. […] (c) Naïve CD4^+ T cells were co-cultured with bone marrow derived dendritic cells and IFN-γ. Quantification of T-bet^+CD3ε^+CD4^+ T cells 48 hours after co-culture in the presence or absence of inosine, A2A receptor inhibitor (ZM241385), cell permeable cAMP (db-cAMP) and protein kinase A inhibitor (RP-8-CPT-CAMPS). (d) Same as (c) without IFN-γ. (e) Representative plot and quantification (left and right panel) of phospho-CREB (Ser133) levels in naïve CD4^+ T cells cultured with anti-CD3/anti-CD28 coated beads for 1 hour in the presence or absence of inosine. (f) Schematic overview of experimental setup to deplete classical dendritic cells during MC38 tumor challenge and anti-CTLA-4 treatment. Intratumoral (g) frequency of CD8^+ T cells (h) IFN-γ^+CD8^+ T cells. (i and j) same as (g and h), but CD4^+ T cells and (k) tumor weight at […]. Data are mean±SEM and pooled from two individual experiments (a-b) n=5-8 samples/group (c-e) 10-15 biological replicates/group (f-k) 10 mice/group. *, P<0.05; **, P<0.01; ***, P<0.001; ****, P<0.0001
# Bone marrow derived dendritic cells (BMDCs) were generated from flushed bone marrow cells, maintained in RPMI-1640 (Sigma) supplemented with 10% FBS, 50 μm 2-Mercaptoethanol (Sigma) 100 units/ml penicillin, 100 μg/ml streptomycin sulfate and 20 ng/ml rm GM-CSF (R&D). Medium was exchanged after 48 hours and 72 hours. 5 days after culture, a magnetic cell sorting step was performed to enrich for CD11c^+ cells (Miltenyi Biotec). CD11c^+ cells were seeded in 96 flat bottom wells and pulsed with 20 ng/ml OVA323-339 and 100 ng/ml LPS (both Sigma) for 18 hours. In some conditions BMDCs were also cultured with 10 ng/ml rmIFN-γ (R&D).
# Negative selection magnetic cell sorting (Miltenyi Biotec) was used to enrich naïve OT-II CD4^+ T cells. Naïve OT-II CD4^+ T cells were then co-cultured with BMDCs at a ratio of 2:1 or stimulated with anti-CD3/anti-CD28 T cell activation beads (Thermofisher) at a ratio of 1:1 for 48 hours prior to restimulation with PMA/lonomycin in the presence of Brefeldin-A and analysis (see Single cell preparation and flow cytometry for details). In some conditions cells were additionally cultured with various combinations of 2 μg/ml anti-CTLA-4, 100 μM db-cAMP (Sigma), 5 μM ZM 241385 (Sigma), 300 μM Rp-8-CPT-CAMPS (Cayman Chemical) or 2 mM inosine (Sigma) as described previously (He et al., 2017; Yao et al., 2013).
# naïve CD4^+ T cells = experiment: Naive CD4+ T cells with anti-CD3/anti-CD28 coated beads; settings: levels of adenosine in the serum
# From the text: as §1
# FIG. 16A-16J: Context dependent effect of inosine on Th1 T cell differentiation. (a) Naïve CD4^+ T cells were co-cultured with bone marrow derived dendritic cells without IFN-γ. Quantification of T-bet^+CD3e^+CD4^+ T cells 48 hours after co-culture in the presence or absence of inosine and anti-CTLA-4, as indicated. (b) Naïve CD4^+ T cells were cultured anti-CD3/anti-CD28 coated beads at a ratio of 1:1 without IFN-γ for 48 hours. Representative plot and quantification of IL12Rβ2 surface expression on CD4^+ T cells in the presence or absence of inosine (left and right panel). (c) Quantification of T-bet^+CD3e^+CD4^+ T cells 48 hours after co-culture in the presence or absence of inosine, db-cAMP and anti-CTLA-4 as indicated. (d) Naïve, A2AR-deficient CD4^+ T cells were cultured with anti-CD3/anti-CD28 coated beads at a ratio of 1:1 without IFN-γ. Quantification of T-bet^+CD3e^+CD4^+ T cells 48 hours after co-culture in the presence or absence of inosine or db-cAMP (e) Representative plot and quantification (left and right panel) of pCREB expression of anti-CD3/anti-CD28 bead co-cultured CD4^+ T cells in the presence or absence of inosine or db-cAMP 1 hour after stimulation. Analysis through flow cytometry. (f and g) Naïve, wild type CD4^+ T cells were cultured with anti-CD3/anti-CD28 coated beads at a ratio of 1:1. Il12rb2 and Ifng gene transcripts (normalized to Gapdh) were evaluated 24 and 48 hours following inosine (1 mM) stimulation. Expression was normalized to cells treated with medium. Analysis through quantitative PCR assay (h) Naïve CD4^+ T cells were cultured with anti-CD3/anti-CD28 coated beads at a ratio of 1:1 without IFN-γ for 24 hours. Then inosine or vehicle was added at the indicated concentrations for another 48 hours before T cell differentiation and activation was assessed. (i) Adenosine concentrations in the duodenal-, jejunal- or cecal content of B.p. monocolonized mice and in the serum of B.p. or C.sp. monocolonized anti-CTLA-4 treated mice. (j) Naïve CD4^+ T cells were cultured with anti-CD3/anti-CD28 coated beads at a ratio of 1:1 without IFN-γ for 24 hours. Adenosine or was added then in the indicated concentrations for another 48 hours followed by T cell differentiation and activation was assessed through flow cytometry. […]
# [2] = system: A2AR-deficient CD4^+ T cells; experiment: A2AR-deficient naive CD4+ T cells with anti-CD3/anti-CD28 coated beads
# Experimental: FIG. 16A-16J: Context dependent effect of inosine on Th1 T cell differentiation. (a) Naïve CD4^+ T cells were co-cultured with bone marrow derived dendritic cells without IFN-γ. Quantification of T-bet^+CD3e^+CD4^+ T cells 48 hours after co-culture in the presence or absence of inosine and anti-CTLA-4, as indicated. (b) Naïve CD4^+ T cells were cultured anti-CD3/anti-CD28 coated beads at a ratio of 1:1 without IFN-γ for 48 hours. Representative plot and quantification of IL12Rβ2 surface expression on CD4^+ T cells in the presence or absence of inosine (left and right panel). (c) Quantification of T-bet^+CD3e^+CD4^+ T cells 48 hours after co-culture in the presence or absence of inosine, db-cAMP and anti-CTLA-4 as indicated. […] Quantification of T-bet^+CD3e^+CD4^+ T cells 48 hours after co-culture in the presence or absence of inosine or db-cAMP (e) Representative plot and quantification (left and right panel) of pCREB expression of anti-CD3/anti-CD28 bead co-cultured CD4^+ T cells in the presence or absence of inosine or db-cAMP 1 hour after stimulation. […] Il12rb2 and Ifng gene transcripts (normalized to Gapdh) were evaluated 24 and 48 hours following inosine (1 mM) stimulation. […] Analysis through quantitative PCR assay (h) Naïve CD4^+ T cells were cultured with anti-CD3/anti-CD28 coated beads at a ratio of 1:1 without IFN-γ for 24 hours. […]
structure (smiles),measurement,setting,value
"Nc1nc(NCCc2ccc(O)cc2)nc2nc(-c3ccco3)nn12 [ZM241385, reference compound]",effect of inosine on Th1 differentiation,[1]; inhibitor added (5 μM ZM 241385; 300 μM Rp-8-CPT-CAMPS),completely abrogated the effect of inosine
"Nc1ncnc2c1ncn2[C@@H]1O[C@H](CO)[C@@H](O)[C@H]1O [adenosine, reference compound]","Th1 activation and effector function, adenosine dose response",naïve CD4^+ T cells,insufficient to promote Th1 activation and effector function
"CCCC(=O)Nc1ncnc2c1ncn2[C@@H]1O[C@@H]2COP(=O)(O)O[C@H]2[C@H]1OC(=O)CCC [db-CAMP, reference compound]",Th1 differentiation and phosphorylation of CREB,[2],increased Th1 differentiation and phosphorylation of CREB in A2AR-deficient T cells
same,Th1 differentiation,[1]; 100 μM db-cAMP,restored Th1 differentiation and bypassed the need for inosine

# Source: US20240181049A1, “HARNESSING THE POWER OF MICROBIOTA AND METABOLITES FOR THE TREATMENT OF CANCER” (UTI LIMITED PARTNERSHIP, priority 2019, published 2024)
